Entries after “also recorded” stand apart in the source; their conditions may differ. No end group written: not given here.
What was measured:
[1] = system: chromatophores
[2] = system: erythrophores; assay type: cell-based
[3] = system: melanophores; assay type: cell-based
[4] = system: chromatophores; experiment: cells; conditions: read-out: Threshold concentration PPM
[5] = system: Betta splendens erythrophores; assay type: cell-based
[6] = system: fish chromatophores; assay type: cell-based
[7] = system: iridophores; assay type: cell-based
[8] = system: Betta chromatophores; assay type: cell-based

C[C@]12CCC(=O)C=C1CC[C@@H]1[C@@H]2[C@@H](O)C[C@@]2(C)[C@H]1CC[C@]2(O)C(=O)CO [Hydrocortisone]
Response time Hr. [1]: XX (key: X=1-6 hr; XX=6-24 hr) | Chromatophore response Erythrophores [2]: HypD. | Chromatophore response Melanophores [3]: Hyp. D.

OO [Hydrogen peroxide]
minimal effective concentration [4]: 100 to 1000 µg/mL | Chromatophore response (cell spans the chromatophore type columns) [1]: Imp. (FS)

C[C@H](CCC(=O)O)C[C@H](C)C[C@H](C)C(=O)/C=C(\O)[C@H](C)C[C@H](C)C/C=C/[C@@H](C)[C@@H](O)[C@@H](C)[C@@H](O)C[C@@H]1CC[C@@](C)([C@H]2CC[C@@](C)([C@@H](C)O)O2)O1 [Ionomycin]
Morphology Effect: Aggregation [5]: Yes | Morphology Effect: Dispersion [5]: No | erythrophore pigment response on addition [5]: slight, but sustained aggregation

[Ni] [Ni]
Chromatophore response (cell spans the chromatophore type columns) [1]: Imp. (FS) | Threshold concentration PPT [1]: X (key: X=1 PPT or higher)

O=S(=O)(F)Cc1ccccc1 [PMSF, phenylmethylsulfonyl fluoride]
Chromatophore response (cell spans the chromatophore type columns) [1]: Imp. (FS) | Threshold concentration PPM [1]: X (key: X=1 to 100 PPM; XX=100 to 1000 PPM) | effect of PMSF on sensitivity to H89 [6]: heightens the sensitivity of cells to H89; also recorded: increased sensitivity to H89 inhibition

[Pb] [Pb]
Chromatophore response (cell spans the chromatophore type columns) [1]: Imp. (FS) | Threshold concentration PPT [1]: X (key: X=1 PPT or higher)

CN(C)CCC(c1ccccc1)c1ccccn1 (stereo not drawn) [Pheniramine]
minimal effective concentration [4]: 100 to 1000 µg/mL

CC(COc1ccccc1)N(CCCl)Cc1ccccc1 (stereo not drawn) [Phenoxy-benzamine]
Chromatophore response (cell spans the chromatophore type columns) [1]: Blocks norepinephrine

Cc1ccc(N(CC2=NCCN2)c2cccc(O)c2)cc1 [Phentolamine]
Chromatophore response (cell spans the chromatophore type columns) [1]: Blocks norepinephrine

CNCCNS(=O)(=O)c1cccc2cnccc12 [Protein kinase inhibitor H-8]
Threshold concentration PPM [1]: XX (key: X=1 to 100 PPM; XX=100 to 1000 PPM) | Chromatophore response Melanophores [3]: Disp.

NCCNS(=O)(=O)c1cccc2cnccc12 [Protein kinase inhibitor H-9]
Threshold concentration PPM [1]: XX (key: X=1 to 100 PPM; XX=100 to 1000 PPM) | Chromatophore response Melanophores [3]: Disp.

COC(=O)[C@@]1(O)C[C@H]2O[C@]1(C)n1c3ccccc3c3c4c(c5c6ccccc6n2c5c31)C(=O)NC4 [Protein kinase inhibitor K252a]
minimal effective concentration [4]: 1 to 100 µg/mL

c1cc2ccc3cccc4ccc(c1)c2c34 [Pyrene]
minimal effective concentration [4]: 1 to 100 µg/mL

O=C(O)c1ccccc1O [Salicylate]
Chromatophore response (cell spans the chromatophore type columns) [1]: Imp. (FS) | Threshold concentration PPM [1]: XX (key: X=1 to 100 PPM; XX=100 to 1000 PPM)

NCCc1c[nH]c2ccc(O)cc12 [Serotonin]
minimal effective concentration [4]: 1 to 100 µg/mL | Chromatophore response (cell spans the chromatophore type columns) [1]: Partial Aggr.

C/C=C(/C)C(=O)O[C@H]1C(C)=C2[C@H]([C@@H]1OC(=O)CCCCCCC)[C@@](C)(OC(C)=O)C[C@H](OC(=O)CCC)[C@@]1(O)[C@H]2OC(=O)[C@@]1(C)O [Thapsigargin]
Morphology Effect: Aggregation [5]: Yes | Morphology Effect: Dispersion [5]: No

CCOC(=O)c1cccc(N)c1 [Tricaine]
Threshold concentration PPM [1]: X (key: X=1 to 100 PPM; XX=100 to 1000 PPM) | Chromatophore response Melanophores [3]: Disp.

COP(=O)(OC)C(O)C(Cl)(Cl)Cl (stereo not drawn) [Trichlorfon]
Response time Hr. [1]: X (key: X=1-6 hr; XX=6-24 hr) | Chromatophore response Erythrophores [2]: Imp. (FS) | Chromatophore response Iridophores [7]: Hue change (FS)

COc1ccc(CCN(C)CCCC(C#N)(c2ccc(OC)c(OC)c2)C(C)C)cc1OC (stereo not drawn) [Verapamil]
Morphology Effect: Aggregation [5]: No | Morphology Effect: Dispersion [5]: Yes | erythrophore pigment dispersion response, control [5]: failed to induce pigment dispersion response | erythrophore pigment response after norepinephrine pre-treatment [5]: produces pigment dispersion | erythrophore response to verapamil [5]: rapid dispersion; also recorded: disperse almost as completely as possible; also recorded: pigment dispersion; also recorded: larger dispersion | Threshold concentration PPB [1]: X (key: X=1 to 100 PPB; XX=100 to 1000 PPB)

COC(=O)[C@@H]1[C@H]2C[C@H]3c4[nH]c5ccccc5c4CCN3C[C@@H]2CC[C@@H]1O [Yohimbine]
Chromatophore response (cell spans the chromatophore type columns) [1]: Blocks norepinephrine

c1ccc(C2CC2)c(OCC2=NCCN2)c1 [cirazoline]
chromatophore response after forskolin and PMSF [6]: no aggregation occurred | chromatophore response in the absence of forskolin [6]: aggregate; also recorded: aggregation | chromatophore response in the presence of forskolin [6]: unresponsive; also recorded: not detectable

MCH
Threshold concentration PPB [1]: X (key: X=1 to 100 PPB; XX=100 to 1000 PPB) | Chromatophore response Melanophores [3]: Aggr.

Pertussis toxin: Bacterial toxin, Pertussis toxin
Response time Hr. [1]: X (key: X=1-6 hr; XX=6-24 hr) | Threshold concentration PPM [1]: X (key: X=1 to 100 PPM; XX=100 to 1000 PPM) | Chromatophore response Melanophores [3]: Imp. | selective sensitivity of color classes of chromatophores [8]: melanophores to pertussis toxin

Substance P (RPKPQQFFGLM; ends and bridges not checked; UniProt P20366 58-68, looked up)
Chromatophore response (cell spans the chromatophore type columns) [1]: Hue changes (FS)

μ-Conotoxin GVIA
Morphology Effect: Aggregation [5]: No | Morphology Effect: Dispersion [5]: No
